In ChEMBL document CHEMBL5728835, “3-(5-amino-1-oxoisoindolin-2-yl)piperidine-2,6-dione derivatives and uses thereof” (2021):

Biological target: Eukaryotic peptide chain release factor GTP-binding subunit ERF3A (Homo sapiens, UniProt P15170)
Sequence (P15170 whole entry): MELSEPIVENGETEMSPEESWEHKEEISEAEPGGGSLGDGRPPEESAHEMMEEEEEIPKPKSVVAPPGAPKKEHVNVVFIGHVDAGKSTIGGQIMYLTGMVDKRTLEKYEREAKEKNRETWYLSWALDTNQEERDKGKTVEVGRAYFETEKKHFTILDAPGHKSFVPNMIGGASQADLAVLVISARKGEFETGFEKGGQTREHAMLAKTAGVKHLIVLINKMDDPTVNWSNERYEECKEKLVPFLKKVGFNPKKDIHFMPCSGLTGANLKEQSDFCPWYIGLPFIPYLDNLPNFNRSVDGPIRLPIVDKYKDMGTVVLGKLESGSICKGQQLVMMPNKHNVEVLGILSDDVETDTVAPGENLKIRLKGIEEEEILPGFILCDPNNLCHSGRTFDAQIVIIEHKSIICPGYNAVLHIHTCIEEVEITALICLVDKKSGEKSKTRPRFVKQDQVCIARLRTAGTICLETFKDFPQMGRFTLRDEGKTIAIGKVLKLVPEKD

CN[C@H]1CC=CC[C@@H]1N(C)c1ccc2c(c1)CN(C1CCC(=O)NC1=O)C2=O (stereo partly specified)
EC50: > 50 µM
